Experimental data as given in patent publication US20160272617A1, “SUBSTITUTED PHENYLALANINE DERIVATIVES” (BAYER PHARMA AKTIENGESELLSCHAFT, priority 2013, published 2016).
pIC50: −log10 of the molar value. Structures can show the parent of a compound that is named as a salt.

Key:
human and animal plasma = test: Determination of anticoagulatory activity: activated partial thromboplastin time (aPTT) in plasma; conditions: concentration of test substance which brings about a 1.5-fold extension of the aPTT; plasma species not given
Method in brief: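 Citrated plasma (1:9, 0.11 M citrate; 4000 g, 15 min) from human or animal blood incubated with test compound and cephalin/kaolin PTT reagent for 3 min at 37° C.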

human factor XIa = molecular target: T1, human factor XIa (Homo sapiens, UniProt P03951); test: Measurement of FXIa inhibition (fluorogenic peptide substrate Boc-Glu(OBzl)-Ala-Arg-AMC); type: biochemical; conditions: factor XIa from Kordia, 15 min preincubation, 30 min at 22° C., fluorescence
T1 construct: purchased Kordia
T1 sequence (P03951 388-625 limits assumed): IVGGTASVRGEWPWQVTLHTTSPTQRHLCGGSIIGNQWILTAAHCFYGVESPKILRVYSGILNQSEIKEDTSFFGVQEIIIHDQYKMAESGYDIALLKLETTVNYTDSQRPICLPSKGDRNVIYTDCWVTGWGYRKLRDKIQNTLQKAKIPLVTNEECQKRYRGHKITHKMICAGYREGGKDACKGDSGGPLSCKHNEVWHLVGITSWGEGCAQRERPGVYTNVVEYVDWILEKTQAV
T1 sequence (P03951 19-387 partner limits assumed): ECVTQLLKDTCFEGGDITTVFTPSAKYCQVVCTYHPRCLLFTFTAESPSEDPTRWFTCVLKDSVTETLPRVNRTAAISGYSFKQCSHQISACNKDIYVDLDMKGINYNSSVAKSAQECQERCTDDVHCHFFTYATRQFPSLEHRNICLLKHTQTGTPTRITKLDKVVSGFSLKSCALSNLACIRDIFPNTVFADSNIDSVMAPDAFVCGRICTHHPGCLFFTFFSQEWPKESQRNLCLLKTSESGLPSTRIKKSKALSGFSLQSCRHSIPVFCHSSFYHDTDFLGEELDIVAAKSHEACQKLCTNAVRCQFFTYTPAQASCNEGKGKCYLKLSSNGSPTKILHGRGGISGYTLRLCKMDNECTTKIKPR
Method in brief: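 Released AMC fluorescence (360/460 nm) read after 30 min at 22 °C. The reaction was started with Boc-Glu(OBzl)-Ala-Arg-AMC (10 μM stock) after a 15 min preincubation of the enzyme (0.45 nM stock) with compound (final 50 μM to 0.00013 μM).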

Row | SMILES | aPTT (human and animal plasma) [µmol/L] | pIC50 (human factor XIa)
1 | Cc1cc(C(=O)NC2CCNCC2)ccc1-c1ccc(C[C@H](NC(=O)[C@H]2CC[C@H](CN)CC2)C(=O)Nc2ccc3nc(-c4cccnc4)[nH]c3c2)cc1 [Example 59, 4′-[(2S)-2-({[trans-4-(Aminomethyl)cyclohexyl]carbonyl}amino)-3-oxo-3-{[2-(pyridin-3-yl)-1H-benzimidazol-6-yl]amino}propyl]-2-methyl-N-(piperidin-4-yl)biphenyl-4-carboxamide hydrochloride] | 0.51 | 7.47
2 | NC[C@H]1CC[C@H](C(=O)N[C@@H](Cc2ccc(-c3ccc(C(=O)N[C@@H]4CCNC4)cc3)cc2)C(=O)Nc2ccc(-c3nn[nH]n3)cc2)CC1 [Example 39, 4′-[(2S)-2-({[trans-4-(Aminomethyl)cyclohexyl]carbonyl}amino)-3-oxo-3-{[4-(2H-tetrazol-5-yl)phenyl]amino}propyl]-N-[(3R)-pyrrolidin-3-yl]biphenyl-4-carboxamide hydrochloride] | 0.1 | 8.01
3 | Cc1cc(C(=O)NCC2CCN(C)CC2)ccc1-c1ccc(C[C@H](NC(=O)[C@H]2CC[C@H](CN)CC2)C(=O)Nc2ccc(-c3nnc(C(F)(F)C(F)(F)C(=O)O)[nH]3)cc2)cc1 [Example 108, 3-[5-(4-{[(2S)-2-({[trans-4-(Aminomethyl)cyclohexyl]carbonyl}amino)-3-(2′-methyl-4′-{[(1-methylpiperidin-4-yl)methyl]carbamoyl}biphenyl-4-yl)propanoyl]amino}phenyl)-4H-1,2,4-triazol-3-yl]-2,2,3,3-tetrafluoropropanoic acid hydrochloride] | 0.07 | 8.72
4 | CC1CC(NC(=O)c2ccc(-c3ccc(C[C@H](NC(=O)[C@H]4CC[C@H](CN)CC4)C(=O)Nc4ccc(-c5nn[nH]n5)cc4)cc3)c(Cl)c2)CCN1 (stereo partly drawn) [Example 30, 4′-[(2S)-2-({[trans-4-(Aminomethyl)cyclohexyl]carbonyl}amino)-3-oxo-3-{[4-(2H-tetrazol-5-yl)phenyl]amino}propyl]-2-chloro-N-(2-methylpiperidin-4-yl)biphenyl-4-carboxamide hydrochloride] | 0.12 | 8.49
5 | Cc1cc(C(=O)NCC[N+](C)(C)C)ccc1-c1ccc(C[C@H](NC(=O)[C@H]2CC[C@H](CN)CC2)C(=O)Nc2ccc(-c3nn[nH]n3)cc2)cc1 [Example 41, 2-[({4′-[(2S)-2-({[trans-4-(Aminomethyl)cyclohexyl]carbonyl}amino)-3-oxo-3-({[4-(2H-tetrazol-5-yl)phenyl]amino}propyl]-2-methylbiphenyl-4-yl}carbonyl)amino]-N,N,N-trimethylethanaminium hydrochloride] | 0.18 | 8.22
6 | NC[C@H]1CC[C@H](C(=O)N[C@@H](Cc2ccc(-c3ccc(C(=O)NC4CCNCC4)c(Cl)c3)cc2)C(=O)Nc2ccc(-c3nn[nH]n3)cc2)CC1 [Example 122, 4′-[(2S)-2-({[trans-4-(Aminomethyl)cyclohexyl]carbonyl}amino)-3-oxo-3-{[4-(2H-tetrazol-5-yl)phenyl]amino}propyl]-3-chloro-N-(piperidin-4-yl)biphenyl-4-carboxamide hydrochloride] | 0.16 | 8.28
7 | Cc1cc(C(=O)NC2C3CNCC32)ccc1-c1ccc(C[C@H](NC(=O)C2CCC(CN)CC2)C(=O)Nc2ccc(-c3nn[nH]n3)cc2)cc1 (stereo partly drawn) [Example 43, 4′-[(2S)-2-({[trans-4-(Aminomethyl)cyclohexyl]carbonyl}amino)-3-oxo-3-{[4-(2H-tetrazol-5-yl)phenyl]amino}propyl]-N-(3-azabicyclo[3.1.0]hex-6-yl)-2-methylbiphenyl-4-carboxamide hydrochloride] | 0.06 | 8.48
8 | COCc1nnc(-c2ccc(NC(=O)[C@H](Cc3ccc(-c4ccc(C(=O)NC5CCNCC5)cc4C)cc3)NC(=O)[C@H]3CC[C@H](CN)CC3)cc2)[nH]1 [Example 54, 4′-[(2S)-2-({[trans-4-(Aminomethyl)cyclohexyl]carbonyl}amino)-3-({4-[3-(methoxymethyl)-4H-1,2,4-triazol-5-yl]phenyl}amino)-3-oxopropyl]-2-methyl-N-(piperidin-4-yl)biphenyl-4-carboxamide hydrochloride] | 0.24 | 7.80
9 | Cc1cc(C(=O)NC2CCN(C)CC2)ccc1-c1ccc(C[C@H](NC(=O)[C@H]2CC[C@H](CN)CC2)C(=O)Nc2ccc3[nH]c(C(F)(F)F)nc3c2)cc1 [Example 76, 4′-[(2S)-2-({[trans-4-(Aminomethyl)cyclohexyl]carbonyl}amino)-3-oxo-3-{[2-(trifluoromethyl)-1H-benzimidazol-5-yl]amino}propyl]-2-methyl-N-(1-methylpiperidin-4-yl)biphenyl-4-carboxamide hydrochloride] | 0.37 | 7.60
10 | Cc1cc(C(=O)NC2CCNCC2)ccc1-c1ccc(C[C@H](NC(=O)[C@H]2CC[C@H](CN)CC2)C(=O)Nc2ccc(-c3nn[nH]n3)cc2)cc1 [Example 36, 4′-[(2S)-2-({[trans-4-(Aminomethyl)cyclohexyl]carbonyl}amino)-3-oxo-3-{[4-(2H-tetrazol-5-yl)phenyl]amino}propyl]-2-methyl-N-(piperidin-4-yl)biphenyl-4-carboxamide] | 0.07 | 8.77
11 | Cc1cc(C(=O)N[C@H]2CCNC2)ccc1-c1ccc(C[C@H](NC(=O)[C@H]2CC[C@H](CN)CC2)C(=O)Nc2ccc(-c3nnc(Cl)[nH]3)cc2)cc1 [Example 83, 4′-[(2S)-2-({[trans-4-(Aminomethyl)cyclohexyl]carbonyl}amino)-3-{[4-(3-chloro-4H-1,2,4-triazol-5-yl)phenyl]amino}-3-oxopropyl]-2-methyl-N-[(3S)-pyrrolidin-3-yl]biphenyl-4-carboxamide hydrochloride] | 0.09 | 8.60
12 | Cc1cc(C(=O)NC2CCC(N(C)C)CC2)ccc1-c1ccc(C[C@H](NC(=O)[C@H]2CC[C@H](CN)CC2)C(=O)Nc2ccc(-c3nnc(C(F)(F)C(F)(F)C(F)(F)C(=O)O)[nH]3)cc2)cc1 (stereo partly drawn) [Example 148, 4-[5-(4-{[(2S)-2-({[trans-4-(Aminomethyl)cyclohexyl]carbonyl}amino)-3-(4′-{[4-(dimethylamino)cyclohexyl]carbamoyl}-2′-methylbiphenyl-4-yl)propanoyl]amino}phenyl)-4H-1,2,4-triazol-3-yl]-2,2,3,3,4,4-hexafluorobutanoic acid hydrochloride] | 0.07 | 9.00
13 | Cc1cc(C(=O)N2CCNCC2)ccc1-c1ccc(C[C@H](NC(=O)[C@H]2CC[C@H](CN)CC2)C(=O)Nc2ccc3cn[nH]c3c2)cc1 [Example 5, trans-4-(Aminomethyl)-N-{(2S)-1-(1H-indazol-6-ylamino)-3-[2′-methyl-4′-(piperazin-1-ylcarbonyl)biphenyl-4-yl]-1-oxopropan-2-yl}cyclohexanecarboxamide hydrochloride] | 0.21 | 7.80
14 | NC[C@H]1CC[C@H](C(=O)N[C@@H](Cc2ccc(-c3ccc(C(=O)N4CCNCC4)cc3)cc2)C(=O)Nc2ccc(-c3nn[nH]n3)cc2)CC1 [Example 47, trans-4-(Aminomethyl)-N-[(2S)-1-oxo-3-[4′-(piperazin-1-ylcarbonyl)biphenyl-4-yl]-1-{[4-(2H-tetrazol-5-yl)phenyl]amino}propan-2-yl]cyclohexanecarboxamide trifluoroacetate] | 0.51 | 7.80
15 | NC[C@H]1CC[C@H](C(=O)N[C@@H](Cc2ccc(-c3ccc(C(=O)NC4CCNCC4)c(C(F)(F)F)c3)cc2)C(=O)Nc2ccc(-c3nn[nH]n3)cc2)CC1 [Example 120, 4′-[(2S)-2-({[trans-4-(Aminomethyl)cyclohexyl]carbonyl}amino)-3-oxo-3-{[4-(2H-tetrazol-5-yl)phenyl]amino}propyl]-N-(piperidin-4-yl)-3-(trifluoromethyl)biphenyl-4-carboxamide hydrochloride] | 0.14 | 8.17
16 | Cc1cc(C(=O)NC2CCC(N(C)C)CC2(C)C)ccc1-c1ccc(C[C@H](NC(=O)[C@H]2CC[C@H](CN)CC2)C(=O)Nc2ccc(-c3nnn[nH]3)cc2)cc1 (stereo partly drawn) [Example 144, 4′-[(2S)-2-({[trans-4-(Aminomethyl)cyclohexyl]carbonyl}amino)-3-oxo-3-{[4-(1H-tetrazol-5-yl)phenyl]amino}propyl]-N-[4-(dimethylamino)-2,2-dimethylcyclohexyl]-2-methylbiphenyl-4-carboxamide hydrochloride] | 0.06 | 8.74
17 | CNC(=O)C(F)(F)C(F)(F)c1n[nH]c(-c2ccc(NC(=O)[C@H](Cc3ccc(-c4ccc(C(=O)NC5CCNCC5)cc4C)cc3)NC(=O)[C@H]3CC[C@H](CN)CC3)cc2)n1 [Example 128, 4′-{(2S)-2-({[trans-4-(Aminomethyl)cyclohexyl]carbonyl}amino)-3-oxo-3-[(4-{3-[1,1,2,2-tetrafluoro-3-(methylamino)-3-oxopropyl]-1H-1,2,4-triazol-5-yl}phenyl)amino]propyl}-2-methyl-N-(piperidin-4-yl)biphenyl-4-carboxamide hydrochloride] | 0.14 | 8.77
18 | Cc1cc(C(=O)NC2CCNCC2)ccc1-c1ccc(C[C@H](NC(=O)[C@H]2CC[C@H](CN)CC2)C(=O)Nc2ccc3nc(C(F)(F)C(F)(F)C(F)(F)F)[nH]c3c2)cc1 [Example 85, 4′-[(2S)-2-({[trans-4-(Aminomethyl)cyclohexyl]carbonyl}amino)-3-{[2-(heptafluoropropyl)-1H-benzimidazol-6-yl]amino}-3-oxopropyl]-2-methyl-N-(piperidin-4-yl)biphenyl-4-carboxamide hydrochloride] | 0.12 | 7.80
